Where a name gives a salt, the structure may show the parent alone.
Legend:
IL-1 alpha = assay: Inhibition of LPS stimulated IL-1 alpha release from human mononuclear cells; assay type: cell-based; conditions: 18 hours, 37° C., read-out: Approx. IC50 (LPS stimulated IL-1 alpha)
Method: (§1) 10 ml of human blood were carefully drawn from the antecubital vein using a syringe containing 1 ml of a solution of 3.8% sodium citrate. After dilution with 10 ml PM 16 (Serva, Heidelberg, FRG) and underlayering with 15 ml Lymphoprep® (Molter GmbH), the sample was centrifuged at 400×g for 40 min at 20° C. The mononuclear cells forming a white ring between lymphoprep and plasma were carefully aspirated by a syringe, diluted 1:1 with PM 16 and centrifuged again at 400×g for 10 min. […] was washed with 10 ml RPMI 1640 (Gibco, Berlin, FRG), containing additionally 300 mg/l L-glutamine, 25 mmol/l […] HEPES, 100 μg/ml streptomycin and 100 μg/ml penicillin. Finally, using a Coulter counter IT, the cell suspension was adjusted to 5×10^6 cells/ml. The cells consist of approx. 90% lymphocytes and 10% monocytes.
10 μl DMSO/water (1:10, v/v), containing the test compound, was added to 480 μl of a suspension, containing 5×10^6 mononuclear cells. The synthesis of IL-1 was stimulated by the addition of 10 μl DSMO/water (1:10, v/v), containing 0,5 μg LPS (Salmonella abortus equi, Sigma). After incubation at 37° C. for 18 hours, the samples were cooled to 0° C. and centrifuged for 1 min. in a table centrifuge. […]

[1] = system: KC1 induced contraction of guinea pig ileum; assay: KCl induced contraction of guinea pig ileum (specificity); assay type: cell-based; conditions: up to 7.11×10^-5 M
Method: (§2) The specificity of leukotriene antagonism was determined by inducing contraction of guinea pig ileum with agonists like histamine, acetylcholine and KC1. Compounds having specific effect against lipoxygenase products induced contraction normally would not show any inhibition of histamine, acetylcholine and KC1 induced contraction.

[2] = system: isolated guinea pig ileum precontracted with leukotrienes; assay: Relaxation of leukotriene induced contraction of isolated guinea pig ileum; assay type: cell-based; conditions: Cavia porcellus
Method: Guinea pigs of either sex weighing 300-350 g were sensitized with a suspension of aluminum hydroxide gel and egg albumin. After 21 days, each animal was exposed to 0.5% egg albumin aerosol in an air tight perspex chamber and only those animals which developed allergic bronchoconstriction were selected for further experiment.
The animals were tested for one week after antigenic exposure and then sacrificed by head blow and cutting carotid arteries. The lung was quickly removed and placed in aerated Tyrode solution kept at 37° C. The lung was cut into uniform strips and each strip was placed in an organ bath containing isolated guinea pig ileum connected to potentiometric recorder through isotonic transducer in the presence of Tyrode solution kept at 37° C. After a stabilizing period of 30 minutes, the reactivity of ileum to histamine was confirmed by challenging it with 100 ng-200 ng/ml of histamine. The perfusion fluid was then replaced by Tyrode solution containing Atropine (10^-7 M), Mepyramine maleate (10^-7 M) and methylsergide (10^-7 M). Three minutes later, lung strip was challenged by egg albumin (25 μg/ml) and release of leukotrienes was monitored in terms of slow contraction of ileum. The ileum was allowed to contract for 10-15 minutes when a plateau was achieved. The test compound (compound 4 of Table 1) was then added to observe the relaxation.
as §2

[3] = system: histamine induced contraction of guinea pig ileum; assay: Histamine induced contraction of guinea pig ileum (specificity); assay type: cell-based; conditions: up to 7.11×10^-5 M
Method: as §2

[4] = system: microanaphylactic shock of guinea pigs; assay: Inhibition of micro-anaphylactic shock of guinea pigs (egg albumin aerosol); assay type: in vivo, guinea pig; conditions: 20 mg/kg^-1, i.p. + pretreatment with indomethacin, 10 mg/kg
Description: Guinea pigs of either sex weighing between 300-350 g were sensitized with egg albumin absorbed over Al(OH)3 gel. After 21 days of sensitization, each animal was placed in an air tight perspex chamber and exposed to 0.5% egg albumin aerosol through EEL atomizer. EEL atomizer was operated by connecting it to pressurized air through a water trap and dial type sphygmomanometer at the constant air pressure of 180 mm Hg. The time of onset of asthma in seconds and recovery period in minutes was noted.
Each animal was exposed to egg albumin aerosol at an interval of 15 days to maintain the consistency of the reactivity of animals to the antigen. After 3 such control exposures, animals were subjected to drug treatment. On the day of the experiment one group of Guinea pigs consisting of 10 animals was kept as control exposing them only to 0.5% egg albumin aerosol. […] Fifteen mins. after the administration of the test compound the animals were exposed to 0.5% egg albumin aerosol.

[5] = system: Cotton Pellet Granuloma in Rats; assay: Inhibition of carrageenin cotton pellet granuloma in rats; assay type: in vivo, rat (Wistar); conditions: p.o. × 5
Method: The implantation of carrageenin impregnated cotton pellets results in production of large, well-defined granuloma which are easily dissected. The potency of the compounds are assessed by measuring the reduction in granuloma tissue formation.
Cotton wool pellets weighing 40 mg were used for sterilization.
Pellets were dried overnight under a lamp. The pellets in the weight range of 42-44 mg were selected.
Rats (in groups of 6, male or female, Charles River, Wistar, weighing 140-150 g) were anaesthetized with ether. The back was shaved and cleaned; swabbed with alcohol and one centimeter incision was made in the lower midback. A small channel was made bilaterally using a blunt forceps and one cotton pellet placed in each channel. Air from the incision was removed and the wound was stitched. […] Three hours after the administration of the last dose on day 7, animals were sacrificed. The pellets were removed by cutting the skin along the dorsal midline and peeling the skin away from the bodywall in both lateral directions. The pellets were weighed and then placed in drying oven at 140° C. overnight. The dry weights were then recorded and the amount of granuloma was assessed by subtracting the original pellet weight from wet weights and dry weights. The data was evaluated using the difference of left and right weights (cf. Table 4).

[6] = system: experimental allergic encephalomyelitis (EAE) in guinea pigs; assay: Experimental allergic encephalomyelitis (EAE) in guinea pigs; assay type: in vivo, guinea pig; conditions: 3 mg/kg orally once daily for 10 days
Description: This method permits the evaluation of the potential of the test compound in preventing the development of an autoimmune disorder leading to demyelination in the guinea pigs which can be equated to multiple sclerosis disease in humans. EAE is a reproducible chronic inflammatory autoimmune disease of the central nervous system in which an animal is immunized with either a homologous or heterologous extract of the whole brain and spinal cord, which contains the basic myelin protein together with Freund's Complete Adjuvant (FCA). A pathological condition would set in during ten to twenty days following immunization, which is characterized by weight loss, abnormal gait, mild to severe ataxia, paraparesis and moribund state leading to death. The potential of the test compounds to prevent this autoimmune condition was evaluated by observing the severity of the disease and mortality in comparison with untreated and hydrocortisone (standard drug) treated animals.
Guinea pigs (200-300 g) were randomly distributed into groups of 10 each after receiving 0.075 ml of it brain and spinal cord extract in FCA intradermally on the back and 0.050 ml intrapedally in one hind paw. Compound 9 of Table 2 was administered orally at 3 mg/kg once daily for 10 days. The standard compound was administered 100 mg/kg p.o. once daily for 10 days. The weights of the animals were noted every day. Eight days after the induction of the disease, the animals were rated regularly for the severity of the disease and mortality was monitored.

[7] = Oral bioavailability in the rat; assay type: in vivo; conditions: 10 mg/kg oral (vs 1 mg/kg intravenous), plasma
Method: (§3) Since the test compound produced significant activity in the adjuvant arthritic rats and experimental allergic encephalomyelitic guinea pigs when administered orally, the extent of oral bioavailability of this compound was estimated in rats and dogs. Compound 9 of Table 2 was administered intravenously (1 mg/kg) to conscious rats and dogs and blood samples were collected at various time points after administration. Similarly, the test compound was also administered orally (10 mg/kg) to a different set of rats and dogs and blood samples were collected at various time points. The blood samples were extracted and were analyzed by HPLC to obtain the concentration of compound 9 in the plasma. The plasma levels obtained after intravenous and oral administration were plotted against time, areas under the curves were calculated and percent bioavailability were estimated.

[8] = Oral bioavailability in the dog; assay type: in vivo; conditions: 10 mg/kg oral (vs 1 mg/kg intravenous), plasma
Method: as §3

IL-1 = IL-1 release inhibition (Table 2); assay type: cell-based, human; conditions: Homo sapiens; 5 μM; read-out: IL-1 Rel. Inhib.
Method: as §1
10 μl DMSO/water (1:10, v/v), containing the test compound, was added to 480 μl of a suspension, containing 5×10^6 mononuclear cells. The synthesis of IL-1 was stimulated by the addition of 10 μl DSMO/water (1:10, v/v), containing 0,5 μg LPS (Salmonella abortus equi, Sigma). After incubation at 37° C. for 18 hours, the samples were cooled to 0° C. and centrifuged for 1 min. in a table centrifuge. 25 μl aliquots of the supernatant were assayed for IL-1 alpha activity using a commercially available 125-J-IL-1-alpha radioimmunoassay Kit (Amersham/UK), and for IL-1 beta in a similar way using the specific test kit. Control experiments were performed as described without test compound, or with cycloheximide as a test compound.

[9] = system: adjuvant arthritis in rats; assay: Adjuvant-induced arthritis in rats; assay type: in vivo, rat (female Wistar); conditions: 3, 10, and 30 mg/kg orally once a day, 12 days

In the case of `COc1cc(OC)c([C@@H]2CCCC[C@H]2O)c(O)c1C(=O)/C=C/c1ccc(Cl)cc1` (relative stereo) [Compound 4 of Table 1, trans-(±)-2-[4,6-Dimethoxy-2-hydroxy-3-(3-(4-chlorophenyl)prop-2-(E)-enoyl)]phenylcyclohexanol], the IC50 (IL-1 alpha) is reported as 200 to 300 nM, the “Effect on KC1 induced contraction” value [1] is reported as “No effect” and the inhibition at 1.2 µM ([2]; Conc. 1.2 × 10^-6 M) is reported as 36.8%. It also gave an inhibition at 1.68 µM ([2]; Conc. 1.68 × 10^-6 M) of 50.5%, an inhibition at 2.4 µM ([2]; Conc. 2.4 × 10^-6 M) of 62.4% and an inhibition at 7.2 µM ([2]; Conc. 7.2 × 10^-6 M) of 68%. The IC50 ([2]; relaxation of leukotriene precontracted ileum, read-out: App. IC50) was 1680 nM, the “Effect on histamine induced contraction” value [3] was “No effect” and the Recovery period ([4]; control group 37 + 3.4) was 77.6 min. The Onset Time ([4]; control group 75 + 8.7) was 149 s, the “% Inhibition of granuloma, Dry wt.” value ([5]; 10 mg/kg) was 35.6% and the “% Inhibition of granuloma, Wet wt.” value ([5]; 10 mg/kg) was 21%. For the same molecule, the “% Inhibition of granuloma, Dry wt.” value ([5]; 20 mg/kg) was 89.0%, the “% Inhibition of granuloma, Wet wt.” value ([5]; 20 mg/kg) was 54% and the “% Inhibition of granuloma, Dry wt.” value ([5]; 30 mg/kg) was 82.8%. For the same molecule, the “% Inhibition of granuloma, Wet wt.” value ([5]; 30 mg/kg) was 64%.
In the case of `COc1cc(OC)c([C@@H]2CCCC[C@H]2OC(=O)[C@H](C)N)c(O)c1C(=O)/C=C/c1cccc(Br)c1` [Compound 9 of Table 2, trans-(-)-2-[4,6-dimethoxy-2-hydroxy-3-(3-(3-bromophenyl)prop-2-(E)-enoyl)phenyl]cyclohexyl-2-(S)-amino propanoate hydrochloride], the “reduction in the mortality rate” value [6] is reported as 45%, the “clinical symptoms (clinical grading)” value ([6]; compared to untreated group) is reported as “significantly reduced” and the bioavailability [7] is reported as 46%. For the same molecule, the bioavailability [8] was 73%, the inhibition at 5 µM (IL-1) was 55% and the “reduction in the uninjected paw volumes” value [9] was “significant and dose dependent reduction”.
